Reference: publication PMC8691691 (ACS Chemical Neuroscience, 2021)
Where a chain is given by its changes, count along the chain named. Read-outs that look alike come from different tables or passages of the source.

Assays:
[1] = target: T1, GlyT2 A223C mutant (Rattus norvegicus, UniProt P58295, A223C); test: MTSEA-biotin labeling of A223C mutant in NaCl or choline chloride, COS7 cells; format: cell-based; details: 1 μM inhibitor; HBS containing NaCl or choline chloride
T1 construct: expressed in transfected cells; host or cells: COS7
T1 sequence (P58295 1-799 A223C): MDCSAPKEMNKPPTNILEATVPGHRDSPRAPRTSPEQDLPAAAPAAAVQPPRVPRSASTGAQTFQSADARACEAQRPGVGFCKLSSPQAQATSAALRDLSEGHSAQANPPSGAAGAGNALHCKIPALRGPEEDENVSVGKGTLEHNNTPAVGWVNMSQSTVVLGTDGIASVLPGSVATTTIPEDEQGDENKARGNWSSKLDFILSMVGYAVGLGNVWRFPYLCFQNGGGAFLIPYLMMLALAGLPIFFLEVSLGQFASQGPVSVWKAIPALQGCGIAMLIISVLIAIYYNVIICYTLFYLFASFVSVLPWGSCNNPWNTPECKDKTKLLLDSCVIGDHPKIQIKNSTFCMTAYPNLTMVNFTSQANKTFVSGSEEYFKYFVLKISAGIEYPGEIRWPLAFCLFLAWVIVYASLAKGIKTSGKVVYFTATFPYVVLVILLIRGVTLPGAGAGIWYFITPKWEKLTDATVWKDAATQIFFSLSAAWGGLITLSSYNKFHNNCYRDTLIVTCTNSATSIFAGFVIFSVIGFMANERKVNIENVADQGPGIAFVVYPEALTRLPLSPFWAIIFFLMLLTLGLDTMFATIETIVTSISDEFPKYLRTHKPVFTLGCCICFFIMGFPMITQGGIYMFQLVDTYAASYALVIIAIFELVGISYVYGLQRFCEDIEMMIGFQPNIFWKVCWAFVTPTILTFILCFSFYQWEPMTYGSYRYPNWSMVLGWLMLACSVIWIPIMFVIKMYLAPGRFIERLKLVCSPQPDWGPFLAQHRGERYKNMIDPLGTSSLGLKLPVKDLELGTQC
Source text: Several pieces of evidence were obtained to confirm this prediction (Figure 7). […] A second piece of evidence came from experiments using the […] mutant of GlyT2 that contains an exogenous cysteine in EL1, a region sensitive to the different conformations of the transporter induced by the substrates during the transport cycle.[44] […] Then, the cells were washed and subjected to MTSEA-biotin staining as described above.

[2] = target: T2, GlyT2 A639C mutant (Rattus norvegicus, UniProt P58295, A639C); test: [3H]glycine transport by GlyT2 mutant in COS7 cells; format: cell-based
T2 construct: expressed in transfected cells; host or cells: COS7
T2 sequence (P58295 1-799 A639C): T1 sequence (P58295 1-799 A223C) with C223A, A639C
Source text: To validate the predicted interactions between the inhibitors and GlyT2, we used systematic site-directed mutagenesis to construct substitution mutants of the potential residues involved in ligand binding. […] The GlyT2 residues predicted to interact with the inhibitors through its side chain were replaced by amino acids expected to force the loss of the interaction. In the cases where the interaction occurred through the backbone, the inserted amino acid sought to alter the disposition of the substituted residue to lose the coordination.
Substitution mutants were generated with the QuikChange II Site-Directed Mutagenesis kit (Agilent Technologies, Santa Clara, CA, USA), using rGlyT2 or rGlyT1 subcloned in pCDNA3.[47] The complete coding region of all of the constructs was sequenced to verify that only the desired mutation had been introduced. […] COS7 cells were grown and transfected using Turbofect Transfection Reagent (Thermo Fisher Scientific, Waltham, MA, USA), following the manufacturer’s protocol (2 μL reagent/μg of DNA). Cells were incubated for 48 h at 37 °C until used.
At the end of the desired time (usually 10 min), reactions were washed and terminated by aspiration. […] A nonlinear curve fitting method was used to obtain IC50 values using Graphpad Prism software, version 6.0, Graphpad, San Diego, CA, USA.

SMILES | MTSEA-biotin labeling of A223C, sodium dependence [1] | IC50 ([2]; read-out: IC50 (Table S1)) [nM] | IC50 [2] [nM]
N[C@@H](COC(c1cccc(F)c1)c1ccccc1OCc1ccccc1)C(=O)O (stereo partly shown) [ALX1393] | abolished the label in NaCl but left it intact in choline chloride | 22 ± 4 | 
COc1cc(C(=O)NCC2(N(C)C)CCCC2)cc(OC)c1OCc1ccccc1 [ORG25543, N-[[1-(dimethylamino)cyclopentyl]methyl]-3,5-dimethoxy-4-(phenylmethoxy)benzamide] | protects the labeling independently of the cation present in the buffer |  | 51 ± 2
